# Values quoted from earlier work, collected in patent US11154586B2, “Treating sexual dysfunction” (Olive Therapeutics, LLC, priority 2016, dated 2021).
# Tests used:
# [1] = intranasal, men or couples, single agent
smiles,measurement,setting,value
CC[C@H](C)[C@@H]1NC(=O)[C@H](Cc2ccc(O)cc2)NC(=O)[C@@H](N)CSSC[C@@H](C(=O)N2CCC[C@H]2C(=O)N[C@@H](CC(C)C)C(=O)NCC(N)=O)NC(=O)[C@H](CC(N)=O)NC(=O)[C@H](CCC(N)=O)NC1=O [oxytocin],Effect on biological measures of sexual functioning,[1],does not alter biological measures of sexual functioning
same,"Effect on sexual function, Case 1","person, 2 hours after intranasal 16 IU, on progesterone only pill, repeated 2 days later","increased sexual desire, stronger uterine contractions during orgasm, and greater satisfaction"
same,"Effect on sexual function, Case 2","person, intranasal, off-label for social anxiety, apparently also on lisdexamfetamine",broad spectrum enhancement of the patient's sexual function
same,"Effect on anorgasmia, Case 3","person, intranasal, earlier dopamine agonist and growth hormone",sustained restoration of their ability to achieve orgasm
same,"Effect on sexual function, Case 1, third administration","same person, 2 weeks later, after switch to barrier method",did not produce the same sexual enhancement
